Measurements as given in US8618080B2, “Immunomodulatory compounds and treatment of diseases related to an overproduction of inflammatory cytokines” (OM Pharma, priority 2006, dated 2013).

Tests used:
[1] = test system: LACK-sensitized and challenged mice; assay: LACK-induced allergic asthma model, therapeutic i.p. treatment; type: in vivo
Method: The main differences compared to the previous (part a) protocol are: • Mice were treated with OM-197-MP-AC i.p. only on days 15, 17 and 19 (i.e. at least 1 week after the second sensitization) at the dose of 1 mg/Kg (20 μg per mouse). • The lung cytokines measured by multiplex analysis using FACSArray were IL-4, IL-5, IL-13, IFN-γ, and IL-10. Results: Total Cell Number and Eosinophils in BAL:
Two days after the last aerosol, mice were sacrificed and BAL cells harvested.
In order to further characterize the immune status of mice after therapeutic treatment with OM-197-MP-AC, we analyzed LACK-specific IgE in sera of treated mice and in those of untreated mice by ELISA. Whereas LACK-specific IgE levels increased 7-fold upon exposition to LACK aerosols, sera of OM-197-MP-AC-treated mice contained 2-fold less (p<0.05) LACK-specific IgE compared to untreated LACK challenged mice.
FIG. 8: Mice were therapeutically treated three times as described in the method section, lavages were performed in individual mice bled with a canula inserted into their trachea. Lungs were washed 3 times with 1 ml of warmed PBS. Cells were washed with PBS, resuspended in 300 μl, and counted using a Burker-Türk chamber. For differential BAL cell counts, cytospin preparations were made and stained with Wright/Giemsa coloration. The groups tested were: LACK-sensitized and PBS-challenged wt mice (Control), LACK-sensitized and challenged wt mice (Asthma), and OM-197-MP-AC-treated wt mice (OM-197). The total cell number in BAL was determined by microscopic examination of cytospin preparations stained with Wright/Giemsa coloration. The dotted line indicates throughout the graph the value obtained in untreated asthmatic animals.
FIG. 9: Percentage of eosinophils in BAL analyzed by microscopic examination of cytospin preparations stained with Wright/Giemsa coloration. Mice were therapeutically treated three times as described in the method section, cells from BAL were harvested as explained in FIG. 8. The (therapeutic) groups studied are the same as those used in FIG. 8. The dotted line indicates throughout the graph the value obtained in untreated asthmatic animals.
FIG. 10: To analyze lung cytokine contents, lungs were harvested and left lungs were used to prepare protein extracts. 400 μl were recovered for each left lung. Cytokines were measured by multiplex analysis using FACSArray, and results are given in pg/ml. The (therapeutic) groups studied are the same as those used in FIGS. 8 and 9. The dotted lines indicate throughout the graphs the values obtained in untreated asthmatic animals.

[2] = test system: Limulus Amoebocyte Lysate; assay: Limulus Amoebocyte Lysate chromogenic test (LAL endotoxicity); type: biochemical
Method: Endotoxicity was determined first for OM-197-MP-AC and for OM-294-DP by the Limulus Amoebocyte Lysate chromogenic test (Chromogenic-LAL of Bio-Whittaker, kit n° 50-65OU).
The enzymatic reaction is carried out at 37° C. and the formation of the chromogen over time is measured at 405 nm. The time necessary to reach 0.2 units of D.O. is recorded and the endotoxic activity calculated in relation to a LPS standard (standard curve). The results are expressed in EU (Endotoxin Unit) in relation to a standardized preparation of E. coli LPS (1 EU corresponds to 0.08 ng equivalent LPS).

[3] = test system: LACK-sensitized and challenged Balb/c ByJ mice; assay: LACK-induced allergic asthma model, prophylactic i.p. treatment; type: in vivo; settings: 1 mg/Kg i.p. prophylactic
Method: Females Balb/c ByJ mice of 6-week old were purchased from the Centre d'Elevage Janvier (CERJ, Le Genest-St-lsle, France). All the mice were sensitised by 2 i.p. injections of 10 μg LACK protein precipitated in 2 mg of Alum (PerBio Science France SAS, Brebières, France) at days 0 and 7.
Animals were divided in groups, as follow: • LACK-sensitized and saline-challenged mice (4 mice) • LACK-sensitized and challenged mice (8 mice) • OM-197-MP-AC-treated, LACK-sensitized and challenged mice (8 mice)
Mice of the third group were treated intraperitoneally with 1 mg/Kg (20 μg per mouse) of OM-197-MP-AC. Mice were treated on days: −1, 1, 2, 3, 6, 8, 9, 10 and 11. From day 16 to day 21, mice of groups B and C were exposed to a daily 20-min aerosol challenge of a LACK solution (0.15%) whereas mice of the saline group received a saline solution as control.
AHR was measured for all the mice one day after the last antigen challenge by whole-body plethysmography (Emka) in response to increasing concentrations (6-25 mg/ml) of inhaled methacholine (acetyl methyl choline, Sigma). AHR is expressed as enhanced pause (Penh, see FIG. 4), a dimensionless parameter perfectly correlated to airway compliance and resistance calculated value, which correlates with measurement of airway resistance, impedance, and intrapleural pressure.
All the mice were bled by heart puncture one day after the last aerosol. Total IgE were quantified by ELISA using rat EM-95 anti-IgE mAbs as coating antibody and rat anti-IgE mAbs coupled to biotin as second antibody as described (Julia et al., 2002).
Individual mice were bled and a canula was inserted into their trachea. Lungs were washed 3 times with 1 ml of warmed PBS. Cells were washed with PBS, resuspended in 300 μl, and counted using a Burker-Türk chamber. For differential BAL cell counts, cytospin preparations were made and stained with Wright/Giemsa coloration. The respective numbers of neutrophils, eosinophils, and other mononuclear cells were determined by microscopic examination. Only the percentage of eosinophils (FIG. 5) is reported here.
To investigate lung cytokine contents of treated and untreated animals, protein extracts were prepared from lungs of LACK-sensitized and PBS-challenged wt mice (group “Control”), LACK-sensitized and challenged wt mice (group Asthma”), OM-197-MP-AC-treated wt mice (group “OM-197”). IL-4, IL-5, IL-13 contents were analyzed by multiplex analysis using FACSArray.
Treated or untreated LACK-sensitized mice (see above) were next challenged with daily aerosol of LACK for five consecutive days. One day after the last aerosol, AHR was measured by whole-body plethysmography in response to increasing concentrations of aerosolized methacholine.
To further investigate the effects of prophylactic OM-197-MP-AC on allergic airway inflammation, proteins were extracted from lungs of both treated and untreated WT mice, and cytokines known to play a important role in asthma (IL-4, IL-5 and IL-13) were quantified by multiplex analysis using CBA array beads and FACSarray. Data were normalized to the total quantity of proteins and given as pg of cytokine per mg of lung proteins.

[4] = 1 mg/Kg i.p. therapeutic, versus untreated mice
[5] = lung protein extracts, CBA/FACSArray

CCCCCCCCCCCC(=O)O[C@H](CCCCCCCCCCC)CC(=O)N[C@@H](CCOP(=O)(O)O)C(=O)NCCC[C@H](COC(=O)CCCCCN)NC(=O)C[C@H](O)CCCCCCCCCCC [OM-197-MP-AC, (3S, 9R)-3-[(R)-3-dodecanoyloxytetradecanoylamino]-4-oxo-5-aza-9-[(R)-3-hydroxytetradecanoylamino]-decan-1, 10-diol 1-dihydrogenophosphate 10-(6-aminohexanoate)]
Eosinophils in BAL, less than untreated mice ([1]; 1 mg/Kg i.p. on days 15, 17, 19 (therapeutic)): 40-45 fold less | BAL cell recruitment impaired ([1]; 1 mg/Kg i.p. on days 15, 17, 19 (therapeutic), versus untreated mice): 90% | Lung IFN-γ levels, treated versus untreated mice ([1]; 1 mg/Kg i.p. therapeutic): reduced | Lung IL-10 amounts upon treatment ([1]; 1 mg/Kg i.p. therapeutic): not significantly increased | LACK-specific IgE in sera, less than untreated LACK challenged mice ([1]; 1 mg/Kg i.p. therapeutic, ELISA): 2 fold less | Lung IL-4 levels reduced [1, 4]: 90% | Lung IL-5 amounts reduced [1, 4]: 70% | Lung IL-13 amounts reduced [1, 4]: 85% | Limulus activity in the chromogenic LAL assay [2]: very little or no Limulus activity | Eosinophils in BAL, less than untreated control mice [3]: 3 times less | Total IgE in sera, less than untreated sensitized, challenged mice ([3]; ELISA): 2 fold less | Amount of KC produced in lungs ([3]; lung protein extracts): reduced by half | Lung IFN-γ, less than untreated mice ([3]; lung protein extracts): 2 times less | Lung IL-6, less than untreated mice ([3]; lung protein extracts): 1.5 times less | Lung MCP-1, less than untreated animals ([3]; lung protein extracts): 1.8 times less | Lung IL-4, less than untreated mice [3, 5]: 5 times less | Lung IL-5, less than untreated mice [3, 5]: 5 times less | Lung IL-13, less than untreated mice [3, 5]: 3.5 times less | Airway hyperresponsiveness (AHR, Penh) to methacholine ([3]; whole-body plethysmography one day after last challenge): did not exhibit AHR
